Patent publication US12421249B2, “Inhibitors of APOL1 and methods of using same” (Vertex Pharmaceuticals Incorporated, priority 2020, dated 2025)

Molecular target: T1, APOL1 (Homo sapiens, UniProt O14791)
T1 sequence (O14791 1-398 S342G/I384M): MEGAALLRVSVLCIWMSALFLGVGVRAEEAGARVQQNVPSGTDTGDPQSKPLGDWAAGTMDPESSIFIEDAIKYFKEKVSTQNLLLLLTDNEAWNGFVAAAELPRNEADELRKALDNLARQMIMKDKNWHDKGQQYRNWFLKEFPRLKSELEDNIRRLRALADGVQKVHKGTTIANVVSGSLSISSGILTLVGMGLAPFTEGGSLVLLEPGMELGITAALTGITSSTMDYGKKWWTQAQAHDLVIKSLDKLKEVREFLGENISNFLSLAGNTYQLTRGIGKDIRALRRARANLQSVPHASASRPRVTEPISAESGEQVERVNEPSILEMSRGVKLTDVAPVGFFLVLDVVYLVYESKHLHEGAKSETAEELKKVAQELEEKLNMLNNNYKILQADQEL
Test: Multi-Tox Assay (MultiTox-Fluor Multiplex Cytotoxicity Assay in tet-inducible APOL1 T-REx-HEK293 cells; Table 46 does not say which APOL1 variant G0/G1/G2)
Assay type: cell-based
Conditions: APOL1 variant not given; for IC50: IP50 = IC50 for cell proliferation

Structure (SMILES)	IC90 [nM]	Multi-Tox Assay Max Activity (%)	IC50 [nM]
C[C@@H](CO)CCn1cc([C@@H]2C[C@]3(C[C@H](C)N2)OC[C@@H](O)c2cc(Cl)sc23)nn1 [Compound 299]	50 to 500	99.0	< 50
C[C@H]1C[C@@]2(C[C@@H](c3cn(CC4CCS(=O)(=O)C4)nn3)N1)OC[C@@H](O)c1cc(Cl)sc12 (stereo partly drawn) [Compound 265]		99.0	50 to 500
C[C@H]1C[C@@]2(C[C@@H](c3cn(CC(F)F)nn3)N1)OCC(F)(F)c1cc(Cl)sc12 [Compound 324]		96.0	50 to 500
C[C@H]1C[C@@]2(C[C@@H](c3cn(CC4(F)CCOCC4)nn3)N1)OCC(F)(F)c1cc(Cl)sc12 [Compound 329]			> 500
C[C@H]1C[C@@]2(C[C@@H](c3cn(CC4CCOCC4)nn3)N1)OC[C@@H](O)c1cc(Cl)sc12 [Compound 267]		99.0	50 to 500
C[C@H]1C[C@@]2(C[C@@H](c3cn(CCO)nn3)N1)OC[C@@H](O)c1cc(Cl)sc12 [Compound 244]		100.0	50 to 500
COCCn1cc([C@@H]2C[C@]3(C[C@H](C)N2)OC[C@@H](O)c2cc(Cl)sc23)nn1 [Compound 282]		99.0	< 50
COc1cccc(Cn2cc([C@@H]3C[C@]4(C[C@H](C)N3)OC[C@@H](O)c3cc(Cl)sc34)nn2)c1 [Compound 278]		100.0	< 50
COCCOCCn1cc([C@@H]2C[C@]3(C[C@H](C)N2)OC[C@@H](O)c2cc(Cl)sc23)nn1 [Compound 229]		98.0	50 to 500
C[C@H]1C[C@@]2(C[C@@H](c3cn(Cc4n[nH]c5ccccc45)nn3)N1)OCC(F)(F)c1cc(Cl)sc12 [Compound 349]		91.0	50 to 500
C[C@H]1C[C@@]2(C[C@@H](c3cn(Cc4ncc(F)cc4F)nn3)N1)OC[C@@H](O)c1cc(Cl)sc12 [Compound 298]		95.0	50 to 500
C[C@H]1C[C@@]2(C[C@@H](c3cn(C[C@H](O)CO)nn3)N1)OC[C@@H](O)c1cc(Cl)sc12 [Compound 300]	50 to 500	100.0	50 to 500
C[C@H]1C[C@@]2(C[C@@H](c3cn(Cc4cccnn4)nn3)N1)OC[C@@H](O)c1cc(Cl)sc12 [Compound 280]		99.0	50 to 500
Cc1c(Cn2cc([C@@H]3C[C@]4(C[C@H](C)N3)OCC(F)(F)c3cc(Cl)sc34)nn2)cnn1C [Compound 326]		97.0	50 to 500
C[C@H]1C[C@@]2(C[C@@H](c3cn(Cc4ccc(S(C)(=O)=O)cc4)nn3)N1)OC[C@@H](O)c1cc(Cl)sc12 [Compound 238]			50 to 500
C[C@H]1C[C@@]2(C[C@@H](c3cn(Cc4cccc5c4OCCO5)nn3)N1)OC[C@@H](O)c1cc(Cl)sc12 [Compound 268]		99.0	50 to 500
C[C@H]1C[C@@]2(C[C@@H](c3cn(CCS(=O)(=O)Nc4ccccc4)nn3)N1)OC[C@@H](O)c1cc(Cl)sc12 [Compound 241]	50 to 500	97.0	< 50
C[C@H]1C[C@@]2(C[C@@H](c3cn(Cc4ccccc4S(C)(=O)=O)nn3)N1)OCC(F)(F)c1cc(Cl)sc12 [Compound 347]		96.0	50 to 500
CCOCCn1cc([C@@H]2C[C@]3(C[C@H](C)N2)OC[C@@H](O)c2cc(Cl)sc23)nn1 [Compound 257]			< 50

Structure (SMILES)	IC90 [nM]	Multi-Tox Assay Max Activity (%)	IC50 [nM]
C[C@H]1C[C@@]2(C[C@@H](c3cn(CCc4ccncn4)nn3)N1)OC[C@@H](O)c1cc(Cl)sc12 [Compound 262]		99.0	50 to 500
C[C@H]1C[C@@]2(C[C@@H](c3cn(CC(O)c4ccccc4)nn3)N1)OCC(F)(F)c1cc(Cl)sc12 (stereo partly drawn) [Compound 322]		97.0	50 to 500
C[C@H]1C[C@@]2(C[C@@H](c3cn(CC4(O)CC4)nn3)N1)OC[C@@H](O)c1cc(Cl)sc12 [Compound 233]		100.0	50 to 500
Cc1ncc(Cn2cc([C@@H]3C[C@]4(C[C@H](C)N3)OC[C@@H](O)c3cc(Cl)sc34)nn2)cn1 [Compound 277]		100.0	< 50
C[C@H]1C[C@@]2(C[C@@H](c3cn(CCC#N)nn3)N1)OC[C@@H](O)c1cc(Cl)sc12 [Compound 286]		98.0	< 50
Cc1nnc(Cn2cc([C@@H]3C[C@]4(C[C@H](C)N3)OCC(F)(F)c3cc(Cl)sc34)nn2)[nH]1 [Compound 339]		97.0	50 to 500
C[C@H]1C[C@@]2(C[C@@H](c3cn(CC4CCOC4)nn3)N1)OC[C@@H](O)c1cc(Cl)sc12 (stereo partly drawn) [Compound 269]		99.0	50 to 500
C[C@H]1C[C@@]2(C[C@@H](c3cn(CC(=O)N4CCCCC4)nn3)N1)OCC(F)(F)c1cc(Cl)sc12 [Compound 356]	50 to 500	99.0	50 to 500
C[C@H]1C[C@@]2(C[C@@H](c3cn(Cc4ccc(C#N)cc4)nn3)N1)OC[C@@H](O)c1cc(Cl)sc12 [Compound 253]		100.0	< 50
CCC(O)Cn1cc([C@@H]2C[C@]3(C[C@H](C)N2)OCC(F)(F)c2cc(Cl)sc23)nn1 (stereo partly drawn) [Compound 325]		98.0	< 50
Cc1ccc(Cn2cc([C@@H]3C[C@]4(C[C@H](C)N3)OCC(F)(F)c3cc(Cl)sc34)nn2)nc1 [Compound 334]		96.0	50 to 500
C[C@H]1C[C@@]2(C[C@@H](c3cn(CCc4ccncn4)nn3)N1)OCC(F)(F)c1cc(Cl)sc12 [Compound 305]		100.0	< 50
C[C@H]1C[C@@]2(C[C@@H](c3cn(Cc4cccnn4)nn3)N1)OCC(F)(F)c1cc(Cl)sc12 [Compound 321]		99.0	< 50
Cc1cc(Cn2cc([C@@H]3C[C@]4(C[C@H](C)N3)OCC(F)(F)c3cc(Cl)sc34)nn2)ccn1 [Compound 336]		99.0	< 50
Cc1nnc(Cn2cc([C@@H]3C[C@]4(C[C@H](C)N3)OC[C@@H](O)c3cc(Cl)sc34)nn2)[nH]1 [Compound 272]		95.0	50 to 500
C[C@@H](CO)CCn1cc([C@@H]2CC3(C[C@H](C)N2)OCC(F)(F)c2cc(Cl)sc23)nn1 (stereo in doubt) [Compound 338]	< 50	99.0	< 50
CC(C)N1CC(Cn2cc([C@@H]3C[C@]4(C[C@H](C)N3)OCC(F)(F)c3cc(Cl)sc34)nn2)CC1=O (stereo partly drawn) [Compound 327]		98.0	< 50
COCCn1cc([C@@H]2C[C@]3(C[C@H](C)N2)OCC(F)(F)c2cc(Cl)sc23)nn1 [Compound 323]		100.0	< 50
COc1cc(F)cc(Cn2cc([C@@H]3C[C@]4(C[C@H](C)N3)OCC(F)(F)c3cc(Cl)sc34)nn2)c1 [Compound 333]		97.0	50 to 500
